Results taken from patent publication US8536202B2, “Triazole-substituted anthranilamides as pesticides” (Bayer Cropscience AG, priority 2010, dated 2013).
Where two headings read alike, the source gives them in different places.

Experiments:
Boophilus microplus = Boophilus microplus test (BOOPMI injection); assay type: in vivo; settings: Rhipicephalus microplus, 168 h, 20 μg/animal, after 7 days, read-out: activity in % (no fertile eggs laid)
Method: (§1) Solvent: dimethyl sulphoxide
An appropriate preparation of active compound is prepared by mixing 10 mg of active compound with 0.5 ml of solvent and diluting the concentrate with solvent to the desired concentration. The solution of active compound is injected into the abdomen (Boophilus microplus), and the animals are transferred to dishes and kept in a climatized room. Activity is assessed by deposition of fertile eggs.
After 7 days, the activity in % is assessed. Here, 100% means that none of the ticks has laid fertile eggs.

[1] = tested on: caterpillars of the armyworm (Spodoptera frugiperda); test: Spodoptera frugiperda test (SPODFR spray treatment); assay type: in vivo; settings: 168 h, read-out: activity in %
Method in brief: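 Percent caterpillar mortality read 7 days after infestation (0% none killed, 100% all killed). Treatment was a spray of the acetone/DMF/emulsifier formulation, water-diluted to test concentration, onto Zea mays leaf discs, allowed to dry before larvae were added.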

[2] = tested on: larvae of the mustard beetle (Phaedon cochleariae); test: Phaedon test (PHAECO spray treatment); assay type: in vivo; settings: 168 h, read-out: activity in %
Method in brief: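 Mortality of mustard beetle larvae, expressed as percent killed (100% all, 0% none), assessed 7 days after spraying. Spray liquor made from compound in acetone plus dimethylformamide with alkylaryl polyglycol ether, diluted in emulsifier-containing water to the desired concentration.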

Lucilia cuprina larvae = test: Lucilia cuprina test (LUCICU); assay type: in vivo; settings: 48 h, read-out: kill in %
Method: as §1
(§2) An appropriate preparation of active compound is prepared by mixing 10 mg of active compound with 0.5 ml of dimethyl sulphoxide and diluting the concentrate with water to the desired concentration.
Vessels containing horse meat treated with the preparation of active compound at the desired concentration are populated with approximately 20 Lucilia cuprina larvae.
After 2 days, the kill in % is ascertained. Here, 100% means that all of the larvae have been killed; 0% means that no larvae have been killed.

adult Musca domestica = test: Musca domestica test (MUSCDO); assay type: in vivo; settings: 48 h, read-out: kill in %
Method: as §1
as §2, with “concentration. Vessels containing a sponge treated with the preparation of active compound at the desired concentration are populated with adult Musca domestica.” for “concentration.”
After 2 days, the kill in % is ascertained. Here, 100% means that all of the flies have been killed; 0% means that no flies have been killed.

[3] = log P determination by HPLC on reversed-phase columns (EEC Directive 79/831 Annex V.A8); assay type: physicochemical; settings: pH 2.7
Method in brief: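 Calibration used unbranched alkan-2-ones of 3 to 16 carbons with known log P, values interpolated linearly from retention times between neighbouring standards. Acidic-range LC-MS run at pH 2.7, eluents aqueous and acetonitrile formic acid 0.1%, linear gradient 10% to 95% acetonitrile.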

[4] = tested on: green peach aphid (Myzus persicae); test: Myzus test (MYZUPE spray treatment), Use Example 4; assay type: in vivo; settings: 144 h, read-out: activity in %
Method in brief: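 Compound was formulated in acetone/dimethylformamide with alkylaryl polyglycol ether emulsifier and diluted in emulsifier-containing water. It was sprayed onto Chinese cabbage leaf discs infested with all stages of Myzus persicae. Mortality (%) was scored after 6 days, where 100% means all aphids killed.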

[5] = tested on: two-spotted spider mite (Tetranychus urticae); test: Tetranychus test, OP-resistant (TETRUR spray treatment); assay type: in vivo; settings: 100 g/ha, after 6 days
Method: (§3) Solvents: 78.0 parts by weight of acetone • • 1.5 parts by weight of dimethylformamide
(§4) Emulsifier: 0.5 part by weight of alkylaryl polyglycol ether
An appropriate preparation of active compound is prepared by mixing 1 part by weight of active compound with the stated amounts of solvent and emulsifier and diluting the concentrate with emulsifier-containing water to the desired concentration. Leaf discs of French bean (Phaseolus vulgaris) infested by all stages of the two-spotted spider mite (Tetranychus urticae) are sprayed with a preparation of active compound at the desired concentration.
After 6 days, the activity in % is ascertained. Here, 100% means that all of the spider mites have been killed; 0% means that no spider mites have been killed.

[6] = tested on: green peach aphid (Myzus persicae); test: Myzus test (MYZUPE spray treatment), Use Example 8, comparison with prior art; assay type: in vivo; settings: 100 g/ha, 6 d
Method: as §3, §4
An appropriate preparation of active compound is prepared by mixing 1 part by weight of active compound with the stated amounts of solvents and emulsifier and diluting the concentrate with emulsifier-containing water to the desired concentration.
Leaf discs of Chinese cabbage (Brassica pekinensis) infested by all stages of the green peach aphid (Myzus persicae) are sprayed with a preparation of active compound at the desired concentration. After the desired time, the activity in % is ascertained. Here, 100% means that all of the aphids have been killed; 0% means that no aphids have been killed.

[7] = HPLC on reversed-phase columns (C 18), EEC Directive 79/831 Annex V.A8, read-out: logP

Row | chromatographic logP ([3]; reversed-phase C18 HPLC column, HPLC on reversed-phase columns (C 18), EEC Directive 79/831 Annex V.A8, read-out: logP) | SMILES | pest or weed control at 0.02 mg (Boophilus microplus) | pest or weed control at 100 g/ha ([1]; 100 g/ha, after 7 days) | pest or weed control at 100 g/ha ([2]; 100 g/ha, after 7 days) | pest or weed control at 100 ppm (Lucilia cuprina larvae; 100 ppm, after 2 days) | pest or weed control at 100 ppm (adult Musca domestica; 100 ppm, after 2 days) | pest or weed control at 100 ppm (Lucilia cuprina larvae) | pest or weed control at 100 ppm (adult Musca domestica) | chromatographic logP [3] | pest or weed control at 100 g/ha ([4]; 100 g/ha, after 6 days) | activity in % [5] | pest or weed control at 100 g/ha [1] | pest or weed control at 100 g/ha [2] | chromatographic logP [3, 7] | % Activity [6] | pest or weed control at 100 g/ha [4]
1 | 3.73 | Cc1cc(C#N)cc(C(=O)NC(C)C2CC2)c1NC(=O)c1cc(Cn2cc(C(F)(C(F)(F)F)C(F)(F)F)nn2)nn1-c1ncccc1Cl (stereo not shown) [Example 218] | 100% | 100% | 100% | 100% | 85% | – | – | – | – | – | – | – | – | – | –
2 | – | NC(=O)c1cc(Cl)cc(Cl)c1NC(=O)c1cc(Cn2cc(C(F)(C(F)(F)F)C(F)(F)F)nn2)nn1-c1ncccc1Cl [Example 247] | 100% | 100% | 100% | – | – | 100% | 100% | 3.13 | – | – | – | – | – | – | –
3 | – | CNC(=O)c1cc(Cl)cc(Cl)c1NC(=O)c1cc(Cn2cc(C(F)(C(F)(F)F)C(F)(F)F)nn2)nn1-c1ncccc1Cl [Example 241] | 100% | 100% | 100% | – | – | 100% | 80% | 3.31 | 100% | – | – | – | – | – | –
4 | – | Cc1cc(I)cc(C(=O)NC2CC2)c1NC(=O)c1cc(Cn2ncc(C(F)(F)C(F)(F)C(F)(F)F)n2)nn1-c1ncccc1Cl [Example 375] | – | – | – | – | – | – | – | – | – | 90% | 100% | 100% | 4.23 | – | –
5 | – | CNC(=O)c1cc(C#N)cc(C)c1NC(=O)c1cc(Cn2ncc(C(C)(C)C)n2)nn1-c1ncccc1Cl [Example 39] | – | – | 83% | – | – | – | – | 2.89 | – | 90% | – | – | – | – | –
6 | – | Cc1cc(Cl)cc(C(N)=O)c1NC(=O)c1cc(Cn2cc(C(F)(F)C(F)(F)F)nn2)nn1-c1ncccc1Cl [drawing 449] | – | – | – | – | – | – | – | – | – | – | – | – | – | 100 6 d % | –
7 | – | Cc1cc(Cl)cc(C(N)=O)c1NC(=O)c1cc(Cn2ncc(C(F)(F)F)n2)nn1-c1ncccc1Cl [Example 134] | 100% | 100% | 100% | – | – | 100% | 100% | 2.7 | 100% | – | – | – | – | – | –
8 | – | CSC[C@H](C)NC(=O)c1cc(I)cc(C)c1NC(=O)c1cc(Cn2cc(C(F)(F)C(F)(F)C(F)(F)F)nn2)nn1-c1ncccc1Cl [Example 321] | – | – | – | – | – | – | – | – | – | 90% | 100% | 100% | 4.27 | – | 100%
9 | – | Cc1cc(Cl)cc(C(N)=O)c1NC(=O)c1cc(Cn2cc(C(F)(C(F)(F)F)C(F)(F)F)nn2)nn1-c1ncccc1Cl [Example 231] | 100% | 100% | 100% | – | – | 100% | 80% | 3.16 | 100% | – | – | – | – | – | –
10 | – | Cc1cc(Cl)cc(C(N)=O)c1NC(=O)c1cc(Cn2ncc(C(F)(C(F)(F)F)C(F)(F)F)n2)nn1-c1ncccc1Cl [Example 263] | 100% | 100% | 100% | – | – | 100% | 100% | 3.48 | 80% | – | – | – | – | – | –
11 | – | Cc1cc(C#N)cc(C(=O)NC(C)C)c1NC(=O)c1cc(Cn2ncc(C(F)(F)F)n2)nn1-c1ncccc1Cl [Example 128] | 100% | 100% | 100% | – | – | 100% | 80% | 3.1 | 100% | – | – | – | – | – | –
12 | – | Cc1cc(I)cc(C(N)=O)c1NC(=O)c1cc(Cn2cc(C(F)(C(F)(F)F)C(F)(F)F)nn2)nn1-c1ncccc1Cl [Example 239] | 100% | 100% | 100% | – | – | 100% | 100% | 3.35 | 100% | – | – | – | – | – | –
13 | – | Cc1cc(C#N)cc(C(=O)NC2(C3CC3)CC2)c1NC(=O)c1cc(Cn2ncc(C(F)(F)F)n2)nn1-c1ncccc1Cl [Example 281] | 100% | 100% | 100% | – | – | 100% | 100% | 3.37 | 100% | – | – | – | – | – | –
14 | – | CNC(=O)c1cc(C#N)cc(C)c1NC(=O)c1cc(Cn2ncc(C(F)(F)F)n2)nn1-c1ncccc1Cl [Example 124] | 100% | 100% | 100% | – | – | 100% | 80% | 2.68 | 100% | – | – | – | – | – | –
15 | – | Cc1cc(Cl)cc(C(=O)NC2CC2)c1NC(=O)c1cc(Cn2cc(C(F)(C(F)(F)F)C(F)(F)F)nn2)nn1-c1ncccc1Cl [Example 232] | 100% | 100% | 100% | – | – | 100% | 100% | 3.61 | 80% | – | – | – | – | – | –
16 | – | Cc1cc(C#N)cc(C(=O)NC(C)(C)C)c1NC(=O)c1cc(Cn2cc(C3CC3)nn2)nn1-c1ncccc1Cl [Example 50] | – | 83% | 100% | – | – | – | – | 2.57 | 90% | 80% | – | – | – | – | –
17 | – | Cc1cc(Cl)cc(C(N)=O)c1NC(=O)c1cc(Cn2nnc(C(F)(F)C(F)(F)F)n2)nn1-c1ncccc1Cl [reference compound] | – | – | – | – | – | – | – | – | – | – | – | – | – | 80 6 d % | –
18 | – | Cc1cc(Cl)cc(C(=O)NC2(C3CC3)CC2)c1NC(=O)c1cc(Cn2ncc(C(F)(F)F)n2)nn1-c1ncccc1Cl [Example 282] | 100% | 100% | 100% | – | – | 100% | 80% | 3.78 | 80% | – | – | – | – | – | –
19 | – | CNC(=O)c1cc(Br)cc(C)c1NC(=O)c1cc(Cn2ncc(C(F)(F)F)n2)nn1-c1ncccc1Cl [Example 172] | 100% | 100% | 100% | – | – | 100% | 80% | 3.1 | 100% | – | – | – | – | – | –
20 | – | Cc1cc(C#N)cc(C(=O)NC(C)(C)C)c1NC(=O)c1cc(Cn2ncc(C(F)(F)F)n2)nn1-c1ncccc1Cl [Example 129] | 100% | 100% | 100% | – | – | 100% | 80% | 3.46 | 100% | – | – | – | – | – | –
